{"source": "patent US20260049101A1", "about": "“TOPICAL TREATMENT OF SKIN CANCER USING OLIGOPEPTIDES” (BACOBA AG, priority 2022, published 2026)", "key": {"M130107": {"tested_on": "M130107", "conditions": "read-out: IC50 M130107", "method": "(§1) For the maintenance of healthy human fibroblast cell culture Dulbecco's Modified Eagle Medium (DMEM, Cat #11966025, Gibco) supplemented with 10% heat-inactivated fetal bovine serum (Cat #S006420H01, BioWest) was used. For the maintenance of melanoma cell cultures RPMI-1640 (Cat #R0883, Gibco) supplemented with L-glutamine (Cat #25030-081, Gibco), 1 mM sodium pyruvate (Cat #S8636, Sigma-Aldrich), 10% heat-inactivated fetal bovine serum (Cat #S006420H01, BioWest) and 1% Penicillin-Streptomycin (Cat #15140122, Gibco) was used. The MyLa_CTCL cell cultures were cultivated in RPMI 1640 Medium (R0883) supplemented with 2 mM L-Glutamine (G7513), 10 U/ml IL-2 (H7041), 10 U/ml IL-4 (H7291) and 10% Human AB Serum (H4522). The cutaneous squamous cell carcinoma cell cultures A431 and SCC13 were cultivated in Dulbecco's Modified Eagle Medium (DMEM, Cat #11966025, Gibco) supplemented with 10% heat-inactivated fetal bovine serum (Cat #S006420H01, BioWest).\n(§2) To determine the half maximal inhibitory concentrations (IC50's) serial dilution of compounds in DMSO to 1000× was performed (10 mM, 5 mM, 1 mM, 500 μM, 250 μM, 100 μM, 10 μM, 1 μM). 2 μl of these dilutions were further diluted in 198 μl growth medium with supplements, mixed well and 10 μl were further dispensed in triplicates to the 96-well plates containing cells in 90 μl.\n(§3) For each drug condition and cell culture (for each row of the triplicate) a well with only RPMI-1640 complete/KSFM/DMEM media and one with media and DMSO were made as controls. DMSO was never at a higher concentration than 0.2% v/v. Triplicates were seeded for each condition. On the day of the assay, the medium was exchanged with cell culture media containing 0.1% of Resazurin-sodium salt stock solution (stock: 0.015 mg/ml, in PBS, Cat #R7017, Sigma-Aldrich). […] With a fluorescence-based plate reader (Infinite M200 Pro, Tecan, Switzerland) using excitations between […] and emissions at 590 nM the cell-culture plates were readout. The calculations and graphs are performed with GraphPad Prism program. Vehicle treated wells were set to 100% viability."}, "[1]": {"tested_on": "cutaneous T cell lymphoma MyLa_CTCL", "conditions": "read-out: IC50 MyLa_CTCL", "method": "as §1, §2, §3"}, "[2]": {"tested_on": "cutaneous melanoma M010817", "conditions": "read-out: IC50 M010817", "method": "as §1, §2, §3"}, "[3]": {"tested_on": "cutaneous melanoma M150507", "conditions": "read-out: IC50 M150507", "method": "as §1, §2, §3"}, "[4]": {"tested_on": "cutaneous squamous cell carcinoma cell line A431_SCC", "conditions": "read-out: IC50 A431", "method": "as §1, §2, §3"}, "[5]": {"tested_on": "cutaneous squamous cell carcinoma cell line SCC13", "conditions": "read-out: IC50 SCC13", "method": "as §1, §2, §3"}, "[6]": {"tested_on": "healthy skin dermal fibroblasts", "method": "as §1, §2, §3"}, "[7]": {"tested_on": "B16-F10 mouse melanoma cells", "assay": "In vitro cell viability assay on B16-F10", "type": "cell-based", "conditions": "B16-F10, 72 hours, resazurin", "method": "In vitro cell viability assay methodology.\nHalf maximal inhibitory concentration (IC50) of the compounds was determined by seeding of cell culture into 96 well-plates (Cat #353072, Corning) and treated the day after with dose-escalating concentrations of the compounds (from 0.001 μM to 10 μM in RPMI-1640 complete) for 72 hours. 1000 cells were seeded per well. […] Triplicates were seeded for each condition. […] Vehicle treated wells were set to 100% viability."}, "[8]": {"tested_on": "B16F10 xenografts in C57BL/6 mice", "assay": "In vivo efficacy test, dermal treatment of intradermal B16-F10 tumours (tumour volume)", "design": "species or system mouse", "conditions": "for T/C [%] (ratio of mean tumour volume of treated over control) / RTV Mean / RTV Median / Tumour Volume [cm^3] Mean / Tumour Volume [cm^3] Median: 20 μl of 5% 6027 dermally daily from day 1; for RTV Mean / RTV Median / Tumour Volume [cm^3] Mean / Tumour Volume [cm^3] Median: n=8", "method": "In vivo efficacy test methodology. C57Bl/6 mice (Janvier Labs); females; 6-8 weeks old at beginning of the treatment. The tumour was induced through intradermal inoculation of 1×10^5 cells per mouse intradermally in the skin of the neck. A total of 24 mice were used (n=8 for vehicle, n=8 for 5% 6027, n=8 for leucinostatin A 0.2%). Test item was applied starting on day 1 after inoculation of the tumour cells. The test items of 20 μl of 5% 6027 and of 0.2% Leucinostatin A were applied dermally with a pipette once a day every day for up to 21 days to the intact skin area of about 1 cm^2 on the site were the B16-F10 cells had been injected. If ulceration occurred then the animal was removed from the test and sacrificed.\nThe read out was tumour volume measured three times a week expressed as tumour volume (in cm^3). Additionally, tumour samples were taken for histological analysis (Tumour FFPE) (2 mice per group)."}, "[9]": {"tested_on": "patient derived Basal Cell Carcinoma (BCC)", "type": "cell-based, human", "conditions": "500 nM, 4 days, vs DMSO"}, "[10]": {"tested_on": "patient derived Basal Cell Carcinoma (BCC)", "assay": "Ex vivo patient-derived nodular BCC (Example 10), Ki67", "type": "cell-based, human", "conditions": "500 nM, 4 days, compared to Vismodegib (20 μM); p<0.002", "method": "Tumour material was harvested from a nodular basal cell carcinoma (BCC) from a patient's upper back.\nVismodegib (20 μM) was used as a positive control."}}, "note": "Read-outs that look alike come from different tables or passages of the source. Square brackets hold non-standard residues; d marks the D form. Peptide text beside a SMILES is read from it. * marks the point of attachment. NH(1-CH2NMe2-cBu) = CN(C)CC1(N*)CCC1; Benzoyl(4-F) = O=C(c1ccc(F)cc1)*; hCha = N[C@@H](CCC1CCCCC1)C(=O)O; Aib = CC(C)(N)C(=O)O; βAla = NCCC(=O)O"}
{"smiles": "CC(C)C[C@H](NC(=O)[C@H](CCC1CCCCC1)NC(=O)[C@@H]1CCCN1C(=O)c1ccc(F)cc1)C(=O)NC(C)(C)C(=O)N[C@@H](CC(C)C)C(=O)N[C@@H](CC(C)C)C(=O)NC(C)(C)C(=O)NC(C)(C)C(=O)NCCC(=O)NC1(CN(C)C)CCC1", "note": "[Compound 6027, (2S)-2-[(2S)-4-cyclohexyl-2-{[(2S)-1-(4-fluorobenzoyl)pyrrolidin-2-yl]formamido}butanamido]-N-(1-{[(1S)-1-{[(1S)-1-({1-[(1-{[2-({1-[(dimethylamino)methyl]cyclobutyl}carbamoyl)ethyl]carbamoyl}-1-methylethyl)carbamoyl]-1-methylethyl}carbamoyl)-3-methylbutyl]carbamoyl}-3-methylbutyl]carbamoyl}-1-methylethyl)-4-methylpentanamide] ({Benzoyl(4-F)}-P[hCha]L[Aib]LL[Aib][Aib][βAla]-{NH(1-CH2NMe2-cBu)})", "values": [{"measurement": "IC50", "setting": "M130107", "value": 169, "unit": "nM"}, {"measurement": "IC50", "setting": "[1]", "value": 451, "unit": "nM"}, {"measurement": "IC50", "setting": "[2]", "value": 60, "unit": "nM"}, {"measurement": "IC50", "setting": "[3]", "value": 56, "unit": "nM"}, {"measurement": "IC50", "setting": "[4]", "value": 70, "unit": "nM"}, {"measurement": "IC50", "setting": "[5]", "value": 191, "unit": "nM"}, {"measurement": "cytotoxicity against healthy skin dermal fibroblasts compared with skin cancer cell lines", "setting": "[6]", "value": "less pronounced"}, {"measurement": "IC50", "setting": "[6]; read-out: IC50 Fibroblast, healthy skin dermal fibroblasts", "value": 3030, "unit": "nM"}, {"measurement": "IC50", "setting": "[7]", "value": 208, "unit": "nM"}, {"measurement": "T/C [%] (ratio of mean tumour volume of treated over control)", "setting": "[8]; day 1", "value": 100, "unit": "%"}, {"measurement": "RTV Mean", "setting": "[8]; day 1", "value": 1.0}, {"measurement": "RTV Median", "setting": "[8]; day 1", "value": 1.0}, {"measurement": "Tumour Volume [cm^3] Mean", "setting": "[8]; day 1", "value": 0.001, "unit": "cm^3"}, {"measurement": "Tumour Volume [cm^3] Median", "setting": "[8]; day 1", "value": 0.001, "unit": "cm^3"}, {"measurement": "T/C [%] (ratio of mean tumour volume of treated over control)", "setting": "[8]; day 2", "value": 100, "unit": "%"}, {"measurement": "RTV Mean", "setting": "[8]; day 2", "value": 1.0}, {"measurement": "RTV Median", "setting": "[8]; day 2", "value": 1.0}, {"measurement": "Tumour Volume [cm^3] Mean", "setting": "[8]; day 2", "value": 0.001, "unit": "cm^3"}, {"measurement": "Tumour Volume [cm^3] Median", "setting": "[8]; day 2", "value": 0.001, "unit": "cm^3"}, {"measurement": "T/C [%] (ratio of mean tumour volume of treated over control)", "setting": "[8]; day 4", "value": 100, "unit": "%"}, {"measurement": "RTV Mean", "setting": "[8]; day 4", "value": 1.0}, {"measurement": "RTV Median", "setting": "[8]; day 4", "value": 1.0}, {"measurement": "Tumour Volume [cm^3] Mean", "setting": "[8]; day 4", "value": 0.001, "unit": "cm^3"}, {"measurement": "Tumour Volume [cm^3] Median", "setting": "[8]; day 4", "value": 0.001, "unit": "cm^3"}, {"measurement": "T/C [%] (ratio of mean tumour volume of treated over control)", "setting": "[8]; day 7", "value": 71, "unit": "%"}, {"measurement": "RTV Mean", "setting": "[8]; day 7", "value": 8.8}, {"measurement": "RTV Median", "setting": "[8]; day 7", "value": 9.0}, {"measurement": "Tumour Volume [cm^3] Mean", "setting": "[8]; day 7", "value": 0.009, "unit": "cm^3"}, {"measurement": "Tumour Volume [cm^3] Median", "setting": "[8]; day 7", "value": 0.009, "unit": "cm^3"}, {"measurement": "T/C [%] (ratio of mean tumour volume of treated over control)", "setting": "[8]; day 9", "value": 64, "unit": "%"}, {"measurement": "RTV Mean", "setting": "[8]; day 9", "value": 28.4}, {"measurement": "RTV Median", "setting": "[8]; day 9", "value": 25.5}, {"measurement": "Tumour Volume [cm^3] Mean", "setting": "[8]; day 9", "value": 0.028, "unit": "cm^3"}, {"measurement": "Tumour Volume [cm^3] Median", "setting": "[8]; day 9", "value": 0.026, "unit": "cm^3"}, {"measurement": "T/C [%] (ratio of mean tumour volume of treated over control)", "setting": "[8]; day 10", "value": 35, "unit": "%"}, {"measurement": "RTV Mean", "setting": "[8]; day 10", "value": 29.9}, {"measurement": "RTV Median", "setting": "[8]; day 10", "value": 25.5}, {"measurement": "Tumour Volume [cm^3] Mean", "setting": "[8]; day 10", "value": 0.030, "unit": "cm^3"}, {"measurement": "Tumour Volume [cm^3] Median", "setting": "[8]; day 10", "value": 0.026, "unit": "cm^3"}, {"measurement": "T/C [%] (ratio of mean tumour volume of treated over control)", "setting": "[8]; day 11", "value": 33, "unit": "%"}, {"measurement": "RTV Mean", "setting": "[8]; day 11", "value": 44.6}, {"measurement": "RTV Median", "setting": "[8]; day 11", "value": 31.0}, {"measurement": "Tumour Volume [cm^3] Mean", "setting": "[8]; day 11", "value": 0.045, "unit": "cm^3"}, {"measurement": "Tumour Volume [cm^3] Median", "setting": "[8]; day 11", "value": 0.031, "unit": "cm^3"}, {"measurement": "reduction of tumour growth", "setting": "[8]; topical treatment with 5% 6027 vs vehicle", "value": "significant reduction of tumour growth"}, {"measurement": "apoptotic cells (TUNEL positive cells)", "setting": "[9]", "value": "Significant increase"}, {"measurement": "cell proliferation (Ki67)", "setting": "[9]", "value": "significantly reduced"}, {"measurement": "cell proliferation (Ki67)", "setting": "[10]", "value": "significantly reduced"}]}
